Columns and labels:
Assay in all cases: NCI 60 cell line single dose screen (SRB)
Assay type in all cases: cell-based
MALME-3M = conditions: Homo sapiens; MALME-3M (melanoma), single dose 10^−5 M, 48 h; read-out: Growth inhibition percentage
Description: (§1) Anticancer activity screening of the newly synthesised compounds was measured in vitro utilising 60 different human tumour cell lines provided by US National Cancer Institute according to previously reported standard procedure[27–29] as follows: Cells are inoculated into 96-well microtitre plates in 100 ml. After cell inoculation, the microtitre plates are incubated at 37 °C, 5% CO2, 95% air and 100% relative humidity for 24 h prior to addition of experimental compounds. After 24 h, two plates of each cell line are fixed in situ with TCA, to represent a measurement of the cell population for each cell line at the time of drug addition (Tz). Experimental compounds are solubilised in dimethyl sulphoxide at 400-fold the desired final maximum test concentration and stored frozen prior to use. At the time of compound addition, an aliquot of frozen concentrate is thawed and diluted to twice the desired final maximum test concentration with complete medium containing […] gentamicin. Aliquots of […] of the compounds dilutions are added to the appropriate microtitre wells already containing 100 ml of medium, resulting in the required final compound concentration. Following compound addition, the plates are incubated for an additional 48 h at 37 °C, 5% CO2, 95% air, and 100% relative humidity. For adherent cells, the assay is terminated by the addition of cold trichloroacetic acid (TCA). Cells are fixed in situ by the gentle addition of 50 ml of cold 50% (w/v) TCA (final concentration, 10% TCA) and incubated for 60 min at 4 °C. The supernatant is discarded, and the plates are washed five times with tap water and air-dried. Sulphorhodamine B (SRB) solution (100 ml) at 0.4% (w/v) in 1% acetic acid is added to each well, and plates are incubated for 10 min at room temperature. After staining, unbound dye is removed by washing five times with 1% acetic acid and the plates are air-dried. Bound stain is subsequently solubilised with 10 mM trizma base, and the absorbance is read on an automated plate reader at a wavelength of 515 nm. For suspension cells, the methodology is the same except that the assay is terminated by fixing settled cells at the bottom of the wells by gently adding 50 ml of 80% TCA (final concentration, 16% TCA). Using the absorbance measurements [time zero, (Tz), control growth, (C), and test growth in the presence of compound (Ti)], the percentage growth is calculated for each compound. Percentage growth inhibition is calculated as: [(Ti – Tz)/(C – Tz)] x 100 for concentrations for which Ti >/=Tz. [(Ti – Tz)/Tz] x 100 for concentrations for which Ti < Tz.

U251 = conditions: Homo sapiens, U-251; U251 (CNS cancer), single dose 10^−5 M, 48 h; read-out: Growth inhibition percentage
Description: as §1

SW-620 = conditions: Homo sapiens; SW-620 (colon cancer), single dose 10^−5 M, 48 h; read-out: Growth inhibition percentage
Description: as §1

TK-10 = conditions: Homo sapiens; TK-10 (renal cancer), single dose 10^−5 M, 48 h; read-out: Growth inhibition percentage
Description: as §1

SF-593 = conditions: Homo sapiens, SF-593 (CNS cancer), single dose 10^−5 M, 48 h, read-out: Growth inhibition percentage
Description: as §1

M14 = conditions: Homo sapiens; M14 (melanoma), single dose 10^−5 M, 48 h; read-out: Growth inhibition percentage
Description: as §1

DU-145 = conditions: Homo sapiens; DU-145 (prostate cancer), single dose 10^−5 M, 48 h; read-out: Growth inhibition percentage
Description: as §1

IGROV1 = conditions: Homo sapiens, IGROV-1; IGROV1 (ovarian cancer), single dose 10^−5 M, 48 h; read-out: Growth inhibition percentage
Description: as §1

HOP-92 = conditions: Homo sapiens; HOP-92 (non-small cell lung cancer), single dose 10^−5 M, 48 h; read-out: Growth inhibition percentage
Description: as §1

HS 578T = conditions: Homo sapiens; HS 578T (breast cancer), single dose 10^−5 M, 48 h; read-out: Growth inhibition percentage
Description: as §1

SK-OV-3 = conditions: Homo sapiens; SK-OV-3 (ovarian cancer), single dose 10^−5 M, 48 h; read-out: Growth inhibition percentage
Description: as §1

MDA-MB-435 = conditions: Homo sapiens; MDA-MB-435 (melanoma), single dose 10^−5 M, 48 h; read-out: Growth inhibition percentage
Description: as §1

SR = conditions: Homo sapiens; SR (leukemia), single dose 10^−5 M, 48 h; read-out: Growth inhibition percentage
Description: as §1

HT29 = conditions: Homo sapiens, HT-29; HT29 (colon cancer), single dose 10^−5 M, 48 h; read-out: Growth inhibition percentage
Description: as §1

HCT-15 = conditions: Homo sapiens; HCT-15 (colon cancer), single dose 10^−5 M, 48 h; read-out: Growth inhibition percentage
Description: as §1

HL-60(TB) = conditions: Homo sapiens; HL-60(TB) (leukemia), single dose 10^−5 M, 48 h; read-out: Growth inhibition percentage
Description: as §1

HOP-62 = conditions: Homo sapiens; HOP-62 (non-small cell lung cancer), single dose 10^−5 M, 48 h; read-out: Growth inhibition percentage
Description: as §1

A498 = conditions: Homo sapiens; A498 (renal cancer), single dose 10^−5 M, 48 h; read-out: Growth inhibition percentage
Description: as §1

SF-295 = conditions: Homo sapiens; SF-295 (CNS cancer), single dose 10^−5 M, 48 h; read-out: Growth inhibition percentage
Description: as §1

MDA-MB-468 = conditions: Homo sapiens; MDA-MB-468 (breast cancer), single dose 10^−5 M, 48 h; read-out: Growth inhibition percentage
Description: as §1

NCI/ADR-RES = conditions: Homo sapiens; NCI/ADR-RES (ovarian cancer), single dose 10^−5 M, 48 h; read-out: Growth inhibition percentage
Description: as §1

Structure (SMILES) | inhibition at 10 µM (MALME-3M) | inhibition at 10 µM (U251) | inhibition at 10 µM (SW-620) | inhibition at 10 µM (TK-10) | inhibition at 10 µM (SF-593) | inhibition at 10 µM (M14) | inhibition at 10 µM (DU-145) | inhibition at 10 µM (IGROV1) | inhibition at 10 µM (HOP-92) | inhibition at 10 µM (HS 578T) | inhibition at 10 µM (SK-OV-3) | inhibition at 10 µM (MDA-MB-435) | inhibition at 10 µM (SR) | inhibition at 10 µM (HT29) | inhibition at 10 µM (HCT-15) | inhibition at 10 µM (HL-60(TB)) | inhibition at 10 µM (HOP-62) | inhibition at 10 µM (A498) | inhibition at 10 µM (SF-295) | inhibition at 10 µM (MDA-MB-468) | other results
Cc1nn(-c2ccc(F)cc2)c2nc[nH]c(=O)c12 [Compound 3, 1–(4-Fluorophenyl)-3-methyl-1H-pyrazolo[3,4-d]pyrimidin-4(5H)-one] | -8.22% | -1.7% | -12.3% | -3.17% | -0.99% | -7.65% | -6.51% | 5.29% | 10.3% | 0.13% | -2.82% | -7.05% | -1.58% | 3.83% | -6.88% | 6.74% | -6.53% | 0.02% | -4.14% | -11.5% | inhibition at 10 µM (NCI/ADR-RES): -1.22%
Cc1nn(-c2ccc(F)cc2)c2ncnc(N)c12 [Compound 4, 1–(4-Fluorophenyl)-3-methyl-1H-pyrazolo[3,4-d]pyrimidin-4-amine] | 5.86% | -7.56% | -18.7% | -4.14% | -1.06% | -3.62% | -7.26% | 11.1% | -1.54% | -4.94% | -5.01% | -5.15% | 3.35% | 3.34% | -4.62% | 7.87% | -8.24% | 0.68% | -3.53% | -13.2% | inhibition at 10 µM (NCI/ADR-RES): 0.66%
Cc1nn(-c2ccc(F)cc2)c2nc(N)nc(N)c12 [Compound 5, 1–(4-Fluorophenyl)-3-methyl-1H-pyrazolo[3,4-d]pyrimidine-4,6-diamine] | -7.8% | -6.63% | -16.8% | -13% | 2.81% | -2.93% | -9.51% | 6.71% | 1.64% | -3.27% | -6.26% | -7.73% | -1.68% | -6.5% | -3.69% | 8.85% | -8.35% | -3.11% | -1.89% | -15.5% | inhibition at 10 µM (NCI/ADR-RES): -3.45%
Cc1nn(-c2ccc(F)cc2)c2ncnc(Cl)c12 [Compound 6, 4-Chloro-1–(4-fluorophenyl)-3-methyl-1H-pyrazolo[3,4-d]pyrimidine] | -4.3% | 5.15% | -2.88% | -23% | -7.81% | 5.89% | 3.05% | 24.4% | 7.91% | 4.54% | 13.7% | -8.83% | 14.4% | 9.55% | 1.32% | 14% | 15.4% | 4.71% | -4.11% | 8.7% | inhibition at 10 µM (NCI/ADR-RES): -8.11%
Cc1ccc(Nc2ncnc3c2c(C)nn3-c2ccc(F)cc2)cc1 [Compound 7c, 1–(4-Fluorophenyl)-3-methyl-N-(p-tolyl)-1H-pyrazolo[3,4-d]-pyrimidin-4-amine] | 1.7% | 2.65% | -8.11% | 9.04% | -1.94% | 0.75% | -8.97% | 1.54% | 3.79% | 0.7% | -16.7% | -6.94% | 6.02% | 11.7% | -0.49% | 16% | -14.5% | 5.97% | -3.83% | -15% | inhibition at 10 µM (NCI/ADR-RES): -6.46%
Cc1nn(-c2ccc(F)cc2)c2ncnc(Nc3ccc(F)c(Cl)c3)c12 [Compound 7d, N-(3-Chloro-4-fluorophenyl)-1–(4-fluorophenyl)-3-methyl-1H-pyrazolo[3,4-d] pyrimidin-4-amine] | 1.56% | 24% | 11.1% | -6.68% | 22.6% | 1.01% | -3.13% | 27.6% | 22.8% | 21.5% | 13.9% | 0.1% | 25.4% | 14.4% | 2.75% | 15% | 38.7% | -5.43% | 40% | -1.69% | inhibition at 10 µM (NCI/ADR-RES): 5.13%
Cc1nn(-c2ccc(F)cc2)c2ncnc(N3CCOCC3)c12 [Compound 8a, 1–(4-Fluorophenyl)-3-methyl-4-morpholino-1H-pyrazolo[3,4-d]pyrimidine] | -10.5% | -1.7% | -4.76% | 9.75% | -8.46% | -4.47% | -7.7% | -3.29% | 9.27% | -4.78% | -7.07% | -2.24% | 1.18% | 7.56% | -2.04% | 22.5% | -13.6% | 4.93% | 0.61% | -7.8% | inhibition at 10 µM (NCI/ADR-RES): -6.35%

From paper PMC6352943, “Novel pyrazolo[3,4-d]pyrimidines: design, synthesis, anticancer activity, dual EGFR/ErbB2 receptor tyrosine kinases inhibitory activity, effects on cell cycle profile and caspase-3-mediated apoptosis” (Journal of Enzyme Inhibition and Medicinal Chemistry, 2019)
